From PMC9351465, “Mechanism-based heparanase inhibitors reduce cancer metastasis in vivo” (Proceedings of the National Academy of Sciences of the …, 2022)
Values joined by “and” are separate entries in the source; they are usually repeats but may differ in a detail not shown here. Identical values can stand only once. “Also recorded” adds a separate entry of the source.

Key:
HPSE [1] = target: T1, HPSE (Homo sapiens, UniProt Q9Y251); experiment: colorimetric fondaparinux cleavage assay; assay type: biochemical
T1 sequence (Q9Y251 158-543 limits assumed): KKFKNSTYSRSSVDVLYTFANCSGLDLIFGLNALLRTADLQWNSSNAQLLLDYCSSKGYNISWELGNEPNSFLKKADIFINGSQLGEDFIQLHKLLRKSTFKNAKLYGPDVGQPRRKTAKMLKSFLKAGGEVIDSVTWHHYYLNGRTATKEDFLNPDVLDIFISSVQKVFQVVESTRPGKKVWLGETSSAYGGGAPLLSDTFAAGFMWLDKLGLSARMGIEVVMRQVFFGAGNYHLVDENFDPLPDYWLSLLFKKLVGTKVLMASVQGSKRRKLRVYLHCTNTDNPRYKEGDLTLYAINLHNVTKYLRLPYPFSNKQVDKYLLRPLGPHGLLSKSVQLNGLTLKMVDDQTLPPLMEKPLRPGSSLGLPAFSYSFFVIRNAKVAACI
T1 sequence (Q9Y251 36-109 limits assumed): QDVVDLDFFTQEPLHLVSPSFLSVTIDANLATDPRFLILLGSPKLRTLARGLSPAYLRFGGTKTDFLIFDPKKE
Method: We next investigated the ability of our inhibitors to abrogate HPSE processing of its native oligosaccharide substrates, using a colorimetric assay that detects cleavage of the synthetic HS pentasaccharide fondaparinux ([49]). […]
Fondaparinux cleavage was performed essentially as previously described (9). Briefly, assays were carried out in 96 well plates (Nunc) pretreated with 4% BSA in TBS-T (20 mM Tris pH 7.4, […]
100 µL reactions were set up in 40 mM NaOAc pH 5.0 buffer, containing final concentrations of 200 ng/mL HPSE, 100 µM Fondaparinux (Arixtra) and specified concentrations of inhibitors.
Reactions were incubated at 37°C for 18 h, then quenched with 100 µL 0.1 M NaOH supplemented with 1.7 mM WST-1 tetrazolium salt, and incubated at 60°C for 1 h. Absorbance at 584 nm was read using an ELISA plate reader (BIO-TEK Instruments). All reactions were carried out in technical duplicate. Data were plotted and analyzed using Sigmaplot (Systat). […]

HPSE [2] = target: T1, HPSE; experiment: H35SPG basement membrane (ECM) digest by recombinant HPSE; assay type: biochemical; settings: for inhibition of recombinant HPSE-mediated H35SPG cleavage: 200 ng HPSE, pH 6.0, 37°C, 5 h
From the text: Finally, we assessed our inhibitors against HPSE-mediated degradation of bona fide HSPGs in an ECM environment. Cultured bovine corneal endothelial cells secrete a subendothelial basement membrane material rich in proteoglycans, which can be radiolabeled by growth in the presence of ^35SO4^2− ([50]). Solubilized H^35S chains released from H^35SPGs by HPSE digestion can be resolved chromatographically, with HPSE inhibition leading to a corresponding loss of signal. […] We also tested inhibition of endogenous cellular HPSE using this assay format. […]
ECM coated 35 mm culture dishes containing 35S labelled HS were prepared as previously described (10). Briefly, bovine corneal endothelial cells were plated at an initial density of 2x10^5 cells/ml, with 4% dextran T-40 (Sigma) included in the growth medium. Na235SO4 (25 µCi/ml) was added to the incubation medium on days 2 and 5 after seeding. On day 12, subendothelial ECM is exposed by dissolving the cells with PBS containing 0.5% Triton X-100 and 20 mM NH4OH, followed by four washes with PBS.
(§1) For HS-degradation assays, ECM coated dishes were incubated with 200 ng recombinant HPSE in 1 mL reaction mixture (10 mM buffer Phosphate-Citrate pH 6.0, 50 mM NaCl, 1 mM DTT, 1 mM CaCl2) containing HPSE inhibitors or DMSO control. Plates were incubated at 37°C for 5 h, then assay medium collected and applied to a 0.9×30 cm Sepharose 6B size exclusion column. The Sepharose 6B column was eluted with PBS, and 35S radioactivity of 0.2 mL fractions quantitated using a liquid scintillation analyzer (Packard BioScience) (11). […]
Matrigel and […]
non-migrating cells in the upper side of the Boyden filter were removed by swabbing, then invading cells on the bottom side of the transwell filter imaged for analysis. […]
B16 melanoma - Twenty minutes before tumor cell inoculation, C57BL/J6 mice (n=5) were injected intraperitoneally with vehicle alone (PBS), compound 2 (300 nmol/mouse), or SST0001 (150 µg/mouse). Mice were subsequently intravenously inoculated with 1.5x105

[3] = target: exo-β-glucuronidase EcGUSB (Escherichia coli, UniProt P05804); experiment: cABPP with ABP 7, recombinant EcGUSB; settings: competition with ABP 7
GUSB = target: T2, GUSB (Homo sapiens, UniProt P08236); experiment: cABPP of human platelet lysates, GUSB band; settings: human platelet lysates containing both HPSE and GUSB
T2 sequence (P08236 23-651): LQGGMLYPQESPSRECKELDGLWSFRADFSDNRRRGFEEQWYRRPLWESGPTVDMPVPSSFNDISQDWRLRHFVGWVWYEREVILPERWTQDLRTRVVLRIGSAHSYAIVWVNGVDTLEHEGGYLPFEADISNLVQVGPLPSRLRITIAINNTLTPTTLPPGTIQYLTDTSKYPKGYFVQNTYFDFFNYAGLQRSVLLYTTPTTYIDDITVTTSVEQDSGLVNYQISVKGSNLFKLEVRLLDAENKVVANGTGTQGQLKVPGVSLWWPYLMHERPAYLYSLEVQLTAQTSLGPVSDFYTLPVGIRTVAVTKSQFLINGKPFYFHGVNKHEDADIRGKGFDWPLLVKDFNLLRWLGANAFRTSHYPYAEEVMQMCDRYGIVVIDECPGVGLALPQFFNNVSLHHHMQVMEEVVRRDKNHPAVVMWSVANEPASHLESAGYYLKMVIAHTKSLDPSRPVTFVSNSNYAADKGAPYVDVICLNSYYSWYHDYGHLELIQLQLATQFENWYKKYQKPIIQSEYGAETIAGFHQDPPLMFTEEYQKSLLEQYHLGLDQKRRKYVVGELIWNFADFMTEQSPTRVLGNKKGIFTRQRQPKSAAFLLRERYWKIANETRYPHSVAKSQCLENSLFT

HPSE [4] = target: T1, HPSE; experiment: competitive activity-based protein profiling (cABPP) with ABP 7, recombinant HPSE; settings: recombinant HPSE 20 nM, 1 h preincubation at 37°C, then 100 nM ABP 7, pH 5.5
U87 glioblastoma cells = experiment: Matrigel invasion assay; assay type: cell-based, human; settings: 20 µM inhibitor, 4 h
Method: Preliminary in cellulo evaluations of our inhibitors’ effects on cancer aggression were conducted using a Matrigel invasion assay, which measures the ability of cells to migrate through transwell inserts coated with the ECM material Matrigel. Matrigel invasion by cells requires a broad complement of proteases and glycosidases, thereby mimicking some aspects of metastasis in vivo ([51]).
as §1
Cells in the upper chamber were separated by Matrigel from a lower chamber containing 600 µL DMEM, supplemented with 10% FBS. […] 10 randomly selected microscopic fields were recorded, and cell invasion calculated using ImageJ, by quantitating the percentage of the field stained by crystal violet. […]

human platelet HPSE = target: T3, human platelet HPSE (Homo sapiens, UniProt Q9Y251); experiment: cABPP of human platelet lysates, HPSE band
T3 sequence (Q9Y251 158-543 limits assumed): T1 sequence (Q9Y251 158-543 limits assumed)
T3 sequence (Q9Y251 36-109 limits assumed): T1 sequence (Q9Y251 36-109 limits assumed)

BpHep and AcGH79 = assay type: biochemical, Burkholderia pseudomallei; Acidobacterium capsulatum; settings: recombinant enzymes, competition with ABP 7

O=C(O)[C@@H]1[C@@H](O)[C@H](O)[C@@H](O)[C@@H]2O[C@@H]21 [compound 1, glucuronyl-cyclophellitol]
HPSE inhibition, fondaparinux cleavage (HPSE [1]; at 50 μM): Little HPSE inhibition
inhibition of recombinant HPSE-mediated H35SPG cleavage (HPSE [2]): no HPSE inhibition was observed
EcGUSB inhibition (cABPP) [3]: inhibited
selectivity of GUSB inhibition in platelet lysates (GUSB): exclusively inhibited GUSB
HPSE inhibition (cABPP) (HPSE [4]): ineffective HPSE inhibitor up to 10 μM

CC(=O)N[C@H]1[C@@H](O[C@H]2[C@H](O)[C@@H](O)[C@@H]3O[C@@H]3[C@@H]2C(=O)O)O[C@H](COS(=O)(=O)O)[C@@H](O)[C@@H]1O [compound 3]
IC50 (HPSE [1]; 200 ng/mL HPSE, 100 µM fondaparinux, pH 5.0, 37°C, 18 h, n = 2, read-out: IC50, HPSE-mediated fondaparinux cleavage): 520 nM and ~510 nM
inhibition of recombinant HPSE-mediated H35SPG cleavage (HPSE [2]): robust, dose-dependent inhibition
level of inhibition of H35SPG cleavage relative to 4.6 μM 10 (HPSE [2]; 1 μM 2 or 3 compared to 4.6 μM 10): comparable levels of inhibition
Matrigel invasion (% field stained) (U87 glioblastoma cells): significantly reduced Matrigel invasion
IC50 (human platelet HPSE; HPSE IC50, human platelet lysates, cABPP, n = 3): ~60 nM and 56 nM
selectivity of HPSE inhibition in platelet lysates (human platelet HPSE; human platelet lysates containing both HPSE and GUSB): highly selective inhibition of human platelet HPSE
HPSE inhibition (cABPP) (HPSE [4]): nanomolar HPSE inhibition potencies; also recorded: greater potency than 2 and 4

O=C(O)[C@@H]1[C@@H](O[C@H]2O[C@H](CO)[C@@H](O)[C@H](O)[C@H]2O)[C@H](O)[C@@H](O)[C@@H]2O[C@@H]21 [compound 4]
HPSE inhibition (cABPP) (HPSE [4]): nanomolar HPSE inhibition potencies

N[C@H]1[C@@H](O[C@H]2[C@H](O)[C@@H](O)[C@@H]3O[C@@H]3[C@@H]2C(=O)O)O[C@H](CO)[C@@H](O)[C@@H]1O [compound 5]
inhibition of BpHep and AcGH79 (cABPP) (BpHep and AcGH79): all compounds apart from 5 showing activity
HPSE inhibition (cABPP) (HPSE [4]): weaker inhibition
